The values that follow come from patent publication US6841177B1, “Pharmacological activities of curcuma longa extracts” (ASAC Compania de Biotecnologia e Investigacion S.A., priority 1999, dated 2005).

The series relates to HaCat cells. Description: Incorporation of BrdU in the DNA of human keratinocytes after radiation with ultraviolet light. The class given is cell-based. The method, then: Culture of the HaCat line
The HaCat line is an immortalized line of normal human keratinocytes. These cells grow in a culture medium consisting of Hanks liquid to which 5% of foetal bovine serum and 2% of penicillin-streptomycin is added at 37° C. in a CO2 atmosphere.
To determine the replication rate, the cells were grown in microplates at a density of 2*10^4 cells per matrix. After 24 hours of treatment, the media was renewed and the cultures were incubated for 24 hours at 37° C. with different concentrations of the extracts and different concentrations of the curcumin and psoralen. Parallel controls were carried out with the solvent (ethanol 0.1%). The incorporation of BrdU was determined with the ELISA test.
The cells were radiated with UVA light at an intensity of 1 J/cm^2 and the incorporation of BrdU was then analysed.

The mark [1] stands for this setting: after UVA radiation, human keratinocytes.

“Also recorded” adds a separate entry of the source.

Take `COc1cc(/C=C/C(=O)CC(=O)/C=C/c2ccc(O)c(OC)c2)ccc1O` [curcumin]: under setting [1], the “amount for 20 % incorporation of BrdU” value turned out to be 1200 ng, the “amount for 40 % incorporation of BrdU” value is 1000 ng, the “amount for 60 % incorporation of BrdU” value was found to be 800 ng and the “amount for 80 % incorporation of BrdU” value came out at 600 ng.

Consider `O=c1ccc2cc3ccoc3cc2o1` [psoralen], for which the “toxicity at the dose giving the same photosensitivisation as Curcuma extracts” value (10 ng/ml) is “toxic doses; also recorded: toxic and mutagenic effects are produced”. For the same compound, the “dose required to produce the same level of photosensitivisation as Curcuma extracts” value (after UV radiation, BrdU incorporation) was 10 ng/mL.
